# Reference: PMC9977937, “Molecular insights into the catalytic mechanism of plasticizer degradation by a monoalkyl phthalate hydrolase” (Communications Chemistry, 2023)
# Key:
# [1] = molecular target: T1, MehpH (crystallization construct) (Gordonia sp. P8219, UniProt Q2MHH5, D259N); assay: X-ray crystallography, […] Å; format: binding; conditions: pH 6.2, 16 °C
# T1 construct: N-terminal 23 residues deleted (core 24-152 and 225-311, lid 153-224), His-tagged, pET30a, E. coli BL21(DE3); four molecules per asymmetric unit
# MehpH = molecular target: T2, MehpH (Gordonia sp. P8219, UniProt Q2MHH5); assay: HPLC of MBP and PA at […] nm; format: biochemical; conditions: 1.0 mM MBP, 1.0 µM enzyme, 10% DMSO
# T2 construct: synthetic gene in pET30a, His-tagged, E. coli BL21(DE3)
# T2 sequence (Q2MHH5 1-311): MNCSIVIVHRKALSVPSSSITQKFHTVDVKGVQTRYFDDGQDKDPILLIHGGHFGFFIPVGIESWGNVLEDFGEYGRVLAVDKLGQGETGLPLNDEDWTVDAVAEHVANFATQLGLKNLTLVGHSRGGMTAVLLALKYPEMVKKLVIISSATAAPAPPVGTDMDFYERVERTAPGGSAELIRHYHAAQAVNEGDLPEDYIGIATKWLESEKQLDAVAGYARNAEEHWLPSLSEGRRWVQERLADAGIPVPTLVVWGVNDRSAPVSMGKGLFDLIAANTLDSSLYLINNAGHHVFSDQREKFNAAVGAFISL
# T1 sequence (Q2MHH5 entry or part of it D259N): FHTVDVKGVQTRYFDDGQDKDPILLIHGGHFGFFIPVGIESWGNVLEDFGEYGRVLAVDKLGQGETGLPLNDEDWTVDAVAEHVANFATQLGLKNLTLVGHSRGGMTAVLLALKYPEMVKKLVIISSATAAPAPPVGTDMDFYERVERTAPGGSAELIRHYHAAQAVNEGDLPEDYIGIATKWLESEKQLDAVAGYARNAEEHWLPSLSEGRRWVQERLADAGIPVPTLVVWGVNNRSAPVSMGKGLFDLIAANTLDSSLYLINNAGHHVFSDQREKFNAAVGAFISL
smiles,measurement,setting,value
"O=C(O)c1ccccc1C(=O)O [PA, phthalic acid]","X-ray crystallography, 2.8 Å","[1]; covalent ester with Ser125 (acyl-enzyme intermediate), crystals of the D259N mutant with MBP",The shape of the electron density is consistent with that of PA
"CCCCOC(=O)c1ccccc1C(=O)O [MBP, monobutyl phthalate]",HPLC of MBP and PA at 254 nm,MehpH,Hydrolytic activities of MehpH and its variants using MBP as substrate
CCCCO [butanol],"X-ray crystallography, 2.8 Å","[1]; non-covalent, in penetrating tunnel next to active site, one of four molecules, crystals with MBP",we discovered the electron density of butanol in the penetrating tunnel
